# Assays:
# Format in all cases: cell-based
# pFRS2a = test: Western blot of pFRS2a in LU99 cell lysate (90 hours treatment); settings: LU99 cells
# Text: FGFR1 and downstream activation marker pFRS2a protein levels were examined in indicated cell lines, as well as markers for epithelial-like cells (E-cadherin) and mesenchymal-like cells (Vimentin).
# H358 = test: 5-day Cell Titer Glo combination matrix, Bliss score; settings: H358 (Lung, Epithelial), 5 days
# Procedure: (§1) Cells were seeded in RPMI medium with 10% HI FBS at a density of 500 cells/well in Greiner, white, clear bottom, 384-well tissue culture treated plates containing 10×10 combination matrices of compound. Plates were incubated at 37° C., 5% CO2 for 5 days. On day 5, Cell Titer Glo reagent was added to the plates and ATP luminescence was detected using a Pherastar FSX reader. The synergy score for the combination effect was calculated using a Bliss score model where the Bliss score=Yab-(Ya+Yb−(YaYb))×100, where Ya and Yb are the monotherapies. Bliss scores >20 are strongly synergistic and a higher Bliss scores indicates a higher level of synergism.
# (§2) Cells were seeded in RPMI medium with 10% HI FBS at a density of 500 cells/well in Greiner, white, clear bottom, 384-well tissue culture treated plates containing 10×10 combination matrices of compound. Plates were incubated at 37° C., 5% CO2 for 5 days. On day 5, Cell Titer Glo reagent was added to the plates and ATP luminescence was detected using a Pherastar FSX reader. Synergy score for the combination effect is calculated using a Bliss score model where the Bliss score=Yab−(Ya+Yb−(YaYb))×100, where Ya and Yb are the monotherapies. Bliss scores >20 are strongly synergistic and a higher Bliss scores indicates a higher level of synergism.
# (§3) Cells were seeded in RPMI medium with 10% HI FBS at a density of 500 cells/well in Greiner, white, clear bottom, 384-well tissue culture treated plates containing 10×10 combination matrices of compound. Plates were incubated at 37° C., 5% CO2 for 5 days. On day 5, Cell Titer Glo reagent was added to the plates and ATP luminescence was detected using a Pherastar FSX reader. The synergy score for the combination effect was calculated using a Bliss score model where the Bliss score=Yab−(Ya+Yb−(YaYb))×100, where Ya and Yb are the monotherapies. Bliss scores >20 are strongly synergistic and a higher Bliss scores indicates a higher level of synergism.
# SW-837 = test: as above; settings: SW837 (CRC, Epithelial); FGFR inhibitor in combination with MRTX849; 5 days
# Procedure: as §1, §3
# HCC-44 = test: as above; settings: HCC44 (Lung, Mesenchymal); FGFR inhibitor in combination with MRTX849; 5 days
# Procedure: as §1, §3
# SW-1573 = test: as above; settings: 5 days
# Procedure: as §1, §2, §3
# H1792 = test: as above; settings: H1792 (Lung, Mesenchymal), 5 days
# Procedure: as §1, §2, §3
# LU-99 = test: as above; settings: 5 days
# Procedure: as §2, §3
# H2122 = test: as above; settings: H2122 (Lung, Epithelial); FGFR inhibitor in combination with MRTX849; 5 days
# Procedure: as §3
# [1] = test system: MiaPaca2 KRAS G12C resistant clone 11; test: 5-day Cell Titer Glo viability and Bliss score
# Procedure: For G12C resistant clone generation, MiaPaca2 parent cells were cultured with increasing concentrations of AMG510 (up to 1μM) over time. The viable cells were re-fed fresh media containing AMG510 weekly. Once the AMG510 resistant cells were growing at normal rates in the presence of 1μM AMG510, they were cloned by limiting dilution. Eight clones were selected for continued passage and further experiments.
# [2] = FGFR inhibitor in combination with Cmpd 3
# [3] = FGFR inhibitor in combination with MRTX849
# [4] = CLONE 11, G12C i 111 nM + Pemi 1 μM, 5-day CTG
compound,measurement,setting,value
"CCN1C(=O)N(c2c(F)c(OC)cc(OC)c2F)Cc2cnc3[nH]c(CN4CCOCC4)cc3c21 [Pemigatinib, 3-(2,6-difluoro-3,5-dimethoxyphenyl)-1-ethyl-8-(morpholin-4-ylmethyl)-1,3,4,7-tetrahydro-2H-pyrrolo[3′,2′:5,6]pyrido[4,3-d]pyrimidin-2-one]","pFRS2a level, FGFR inhibitor in combination with KRAS inhibitor MRTX849","pFRS2a; 50 nM MRTX849, pemigatinib 0.5 μM",inhibited the pFRS2a level
same,"pFRS2a level, FGFR inhibitor in combination with KRAS inhibitors",pFRS2a; with 50 nM AMG510 or Compound 2,inhibited the pFRS2a level
same,Avg. Bliss Score,H358; [2],1.4
same,Avg. Bliss Score,H358; [3],3.7
same,Avg. Bliss Score,SW-837,6.1
same,Avg. Bliss Score,HCC-44,11.6
same,Avg. Bliss Score,"SW-1573; SW1573 (Lung, Mesenchymal), FGFR inhibitor in combination with MRTX849",29.5
same,Avg. Bliss Score,"SW-1573; SW-1573 (Lung, Mesenchymal), FGFR inhibitor in combination with Cmpd 3",19.3
same,Avg. Bliss Score,H1792; [2],24.2
same,Avg. Bliss Score,H1792; [3],19.9
same,Avg. Bliss Score,"LU-99; LU-99 (Lung, Mesenchymal), FGFR inhibitor in combination with Cmpd 3",44.8
same,Avg. Bliss Score,"LU-99; Lu99 (Lung, Mesenchymal), FGFR inhibitor in combination with MRTX849",37.4
same,Avg. Bliss Score,H2122,4.5
same,"% viability, Together",[1]; [4],33.8%
same,BLISS Score,[1]; [4],24.9
same,"% viability, Pemi 1 μM","[1]; CLONE 11, Pemi alone, 5-day CTG",87.6%
same,BLISS Score,"[1]; MIA-R clone 11, Pemi 12 nM + KRAS G12C i 0.15 nM, 5 day CTG",2.35
same,BLISS Score,"[1]; MIA-R clone 11, Pemi 12 nM + KRAS G12C i 0.46 nM, 5 day CTG",11.42
same,BLISS Score,"[1]; MIA-R clone 11, Pemi 12 nM + KRAS G12C i 1.37 nM, 5 day CTG",6.90
same,BLISS Score,"[1]; MIA-R clone 11, Pemi 12 nM + KRAS G12C i 4.12 nM, 5 day CTG",11.81
same,BLISS Score,"[1]; MIA-R clone 11, Pemi 12 nM + KRAS G12C i 12.35 nM, 5 day CTG",1.32
same,BLISS Score,"[1]; MIA-R clone 11, Pemi 12 nM + KRAS G12C i 37.04 nM, 5 day CTG",5.62
same,BLISS Score,"[1]; MIA-R clone 11, Pemi 12 nM + KRAS G12C i 111.11 nM, 5 day CTG",11.57
same,BLISS Score,"[1]; MIA-R clone 11, Pemi 12 nM + KRAS G12C i 333.33 nM, 5 day CTG",−7.24
same,BLISS Score,"[1]; MIA-R clone 11, Pemi 12 nM + KRAS G12C i 1000.00 nM, 5 day CTG",1.05
same,BLISS Score,"[1]; MIA-R clone 11, Pemi 37 nM + KRAS G12C i 0.15 nM, 5 day CTG",14.47
same,BLISS Score,"[1]; MIA-R clone 11, Pemi 37 nM + KRAS G12C i 0.46 nM, 5 day CTG",6.20
same,BLISS Score,"[1]; MIA-R clone 11, Pemi 37 nM + KRAS G12C i 1.37 nM, 5 day CTG",6.05
same,BLISS Score,"[1]; MIA-R clone 11, Pemi 37 nM + KRAS G12C i 4.12 nM, 5 day CTG",20.01
same,BLISS Score,"[1]; MIA-R clone 11, Pemi 37 nM + KRAS G12C i 12.35 nM, 5 day CTG",15.07
same,BLISS Score,"[1]; MIA-R clone 11, Pemi 37 nM + KRAS G12C i 37.04 nM, 5 day CTG",10.60
same,BLISS Score,"[1]; MIA-R clone 11, Pemi 37 nM + KRAS G12C i 111.11 nM, 5 day CTG",8.39
same,BLISS Score,"[1]; MIA-R clone 11, Pemi 37 nM + KRAS G12C i 333.33 nM, 5 day CTG",−5.78
same,BLISS Score,"[1]; MIA-R clone 11, Pemi 37 nM + KRAS G12C i 1000.00 nM, 5 day CTG",4.52
same,BLISS Score,"[1]; MIA-R clone 11, Pemi 111 nM + KRAS G12C i 0.15 nM, 5 day CTG",−3.03
same,BLISS Score,"[1]; MIA-R clone 11, Pemi 111 nM + KRAS G12C i 0.46 nM, 5 day CTG",6.04
same,BLISS Score,"[1]; MIA-R clone 11, Pemi 111 nM + KRAS G12C i 1.37 nM, 5 day CTG",8.76
same,BLISS Score,"[1]; MIA-R clone 11, Pemi 111 nM + KRAS G12C i 4.12 nM, 5 day CTG",13.15
same,BLISS Score,"[1]; MIA-R clone 11, Pemi 111 nM + KRAS G12C i 12.35 nM, 5 day CTG",15.70
same,BLISS Score,"[1]; MIA-R clone 11, Pemi 111 nM + KRAS G12C i 37.04 nM, 5 day CTG",13.58
same,BLISS Score,"[1]; MIA-R clone 11, Pemi 111 nM + KRAS G12C i 111.11 nM, 5 day CTG",9.80
same,BLISS Score,"[1]; MIA-R clone 11, Pemi 111 nM + KRAS G12C i 333.33 nM, 5 day CTG",6.86
same,BLISS Score,"[1]; MIA-R clone 11, Pemi 111 nM + KRAS G12C i 1000.00 nM, 5 day CTG",3.15
same,BLISS Score,"[1]; MIA-R clone 11, Pemi 333 nM + KRAS G12C i 0.15 nM, 5 day CTG",6.68
same,BLISS Score,"[1]; MIA-R clone 11, Pemi 333 nM + KRAS G12C i 0.46 nM, 5 day CTG",20.56
same,BLISS Score,"[1]; MIA-R clone 11, Pemi 333 nM + KRAS G12C i 1.37 nM, 5 day CTG",17.83
same,BLISS Score,"[1]; MIA-R clone 11, Pemi 333 nM + KRAS G12C i 4.12 nM, 5 day CTG",34.95
same,BLISS Score,"[1]; MIA-R clone 11, Pemi 333 nM + KRAS G12C i 12.35 nM, 5 day CTG",20.46
same,BLISS Score,"[1]; MIA-R clone 11, Pemi 333 nM + KRAS G12C i 37.04 nM, 5 day CTG",24.19
same,BLISS Score,"[1]; MIA-R clone 11, Pemi 333 nM + KRAS G12C i 111.11 nM, 5 day CTG",25.28
same,BLISS Score,"[1]; MIA-R clone 11, Pemi 333 nM + KRAS G12C i 333.33 nM, 5 day CTG",14.69
same,BLISS Score,"[1]; MIA-R clone 11, Pemi 333 nM + KRAS G12C i 1000.00 nM, 5 day CTG",13.90
same,BLISS Score,"[1]; MIA-R clone 11, Pemi 1000 nM + KRAS G12C i 0.15 nM, 5 day CTG",−0.21
same,BLISS Score,"[1]; MIA-R clone 11, Pemi 1000 nM + KRAS G12C i 0.46 nM, 5 day CTG",11.01
same,BLISS Score,"[1]; MIA-R clone 11, Pemi 1000 nM + KRAS G12C i 1.37 nM, 5 day CTG",23.94
same,BLISS Score,"[1]; MIA-R clone 11, Pemi 1000 nM + KRAS G12C i 4.12 nM, 5 day CTG",31.01
same,BLISS Score,"[1]; MIA-R clone 11, Pemi 1000 nM + KRAS G12C i 12.35 nM, 5 day CTG",29.47
same,BLISS Score,"[1]; MIA-R clone 11, Pemi 1000 nM + KRAS G12C i 37.04 nM, 5 day CTG",21.52
